Data on 59 compounds can be found in ChEMBL document CHEMBL4007415, “Thieno[3,2-b]pyrrole-5-carboxamides as New Reversible Inhibitors of Histone Lysine Demethylase KDM1A/LSD1. Part 1: High-Throughput Screening and Preliminary Exploration” (J Med Chem, 2017).

Calls of active or inactive are those of the source. No cut-off for these calls is given here.

The IC50 is the point on the concentration scale where inhibition reaches its midpoint. In general, Km refers to the substrate concentration at which the rate is half of its maximum. The Ki is the dissociation constant of the complex between target and ligand, obtained from inhibition or displacement.

In series [1] the target is T1, LSD1/CoREST complex (Homo sapiens, UniProt O60341).
Description: Inhibition of recombinant human KDM1A/CoREST complex expressed in Escherichia coli using biotinylated H3K4me1 peptide as substrate preincubated for 20 mins measured after 1 hr by TR-FRET assay
The target of series [2] is T1, LSD1/CoREST complex. The series can be described thus: Inhibition of recombinant human KDM1A/CoREST complex expressed in Escherichia coli using biotinylated H3K4me1 peptide as substrate preincubated for 10 mins with enzyme followed by substrate addition measured after 1 hr by TR-FRET HTS assay. For orientation: In TR-FRET formats the signal depends on donor and acceptor labels being close together.

Series [3] concerns the target Lysine-specific histone demethylase 1A (Homo sapiens) (UniProt O60341). Put plainly: Inhibition of KDM1A in human THP1 cells assessed as increase in CD14 mRNA expression level at 1 uM after 24 hrs by qRT-PCR analysis relative to control. The series is classed as cell-based. In general terms: Real-time PCR tracks product formation cycle by cycle.
Series [4] has the same target. Put plainly: Inhibition of KDM1A in human THP1 cells assessed as increase in CD11b mRNA expression level at 1 uM after 24 hrs by qRT-PCR analysis relative to control. Type of series: cell-based.
The test system of series [5] is THP-1. Put plainly: Induction of apoptosis in human THP1 cells at 1 uM after 72 hrs by Annexin V-propidium iodide staining based flow cytometry. The series is classed as functional, cell-based. Background: A flow cytometer gives signals particle by particle.
Series [6] relates to THP-1. The series can be described thus: Induction of cell death in human THP1 cells at 1 uM after 72 hrs by propidium iodide staining based flow cytometry. Type of series: functional.
Series [7] addresses T2, Lysine-specific histone demethylase 2 (Homo sapiens, UniProt Q8NB78).
T2 sequence (Q8NB78 whole entry): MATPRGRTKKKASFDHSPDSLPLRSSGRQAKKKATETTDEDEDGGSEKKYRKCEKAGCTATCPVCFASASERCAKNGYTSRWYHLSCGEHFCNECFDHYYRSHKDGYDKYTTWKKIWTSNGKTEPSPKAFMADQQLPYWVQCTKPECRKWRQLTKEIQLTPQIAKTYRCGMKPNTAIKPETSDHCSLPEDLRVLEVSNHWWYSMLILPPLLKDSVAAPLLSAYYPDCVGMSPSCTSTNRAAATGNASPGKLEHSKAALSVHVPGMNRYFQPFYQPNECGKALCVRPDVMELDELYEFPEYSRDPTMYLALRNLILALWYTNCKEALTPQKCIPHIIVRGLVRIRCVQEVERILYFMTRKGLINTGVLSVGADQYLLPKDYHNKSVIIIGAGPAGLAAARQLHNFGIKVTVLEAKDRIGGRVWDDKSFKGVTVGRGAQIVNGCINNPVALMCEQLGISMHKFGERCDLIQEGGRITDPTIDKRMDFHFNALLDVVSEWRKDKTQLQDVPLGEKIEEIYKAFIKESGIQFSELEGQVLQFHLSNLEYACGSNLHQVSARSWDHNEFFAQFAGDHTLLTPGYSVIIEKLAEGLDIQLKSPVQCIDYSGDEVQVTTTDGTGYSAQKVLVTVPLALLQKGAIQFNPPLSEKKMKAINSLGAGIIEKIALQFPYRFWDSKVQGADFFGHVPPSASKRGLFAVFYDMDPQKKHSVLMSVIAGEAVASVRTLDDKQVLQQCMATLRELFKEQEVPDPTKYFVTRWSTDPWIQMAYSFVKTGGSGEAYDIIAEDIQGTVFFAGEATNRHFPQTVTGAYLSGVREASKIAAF
Description: Inhibition of KDM1B (unknown origin)

The target of series [8] is T3, Amine oxidase [flavin-containing] A (Homo sapiens, UniProt P21397).
T3 sequence (P21397 whole entry): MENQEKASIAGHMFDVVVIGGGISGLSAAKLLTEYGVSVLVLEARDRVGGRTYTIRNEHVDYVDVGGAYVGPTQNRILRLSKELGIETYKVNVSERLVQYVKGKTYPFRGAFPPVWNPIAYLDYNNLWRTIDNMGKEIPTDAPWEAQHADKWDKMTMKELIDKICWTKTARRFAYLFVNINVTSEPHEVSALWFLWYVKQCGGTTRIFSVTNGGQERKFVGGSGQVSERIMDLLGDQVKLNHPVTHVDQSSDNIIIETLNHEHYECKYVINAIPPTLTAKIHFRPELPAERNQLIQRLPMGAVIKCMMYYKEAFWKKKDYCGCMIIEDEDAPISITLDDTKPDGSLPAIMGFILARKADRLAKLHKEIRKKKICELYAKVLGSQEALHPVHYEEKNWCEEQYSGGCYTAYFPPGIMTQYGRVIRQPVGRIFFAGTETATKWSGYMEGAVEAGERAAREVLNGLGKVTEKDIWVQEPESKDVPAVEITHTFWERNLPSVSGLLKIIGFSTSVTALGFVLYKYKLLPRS
Description: Inhibition of recombinant human MAOA incubated for 15 mins measured after 30 mins by luminescence-Glo assay

Series [9] concerns the target T4, Amine oxidase [flavin-containing] B (Homo sapiens, UniProt P27338).
T4 sequence (P27338 whole entry): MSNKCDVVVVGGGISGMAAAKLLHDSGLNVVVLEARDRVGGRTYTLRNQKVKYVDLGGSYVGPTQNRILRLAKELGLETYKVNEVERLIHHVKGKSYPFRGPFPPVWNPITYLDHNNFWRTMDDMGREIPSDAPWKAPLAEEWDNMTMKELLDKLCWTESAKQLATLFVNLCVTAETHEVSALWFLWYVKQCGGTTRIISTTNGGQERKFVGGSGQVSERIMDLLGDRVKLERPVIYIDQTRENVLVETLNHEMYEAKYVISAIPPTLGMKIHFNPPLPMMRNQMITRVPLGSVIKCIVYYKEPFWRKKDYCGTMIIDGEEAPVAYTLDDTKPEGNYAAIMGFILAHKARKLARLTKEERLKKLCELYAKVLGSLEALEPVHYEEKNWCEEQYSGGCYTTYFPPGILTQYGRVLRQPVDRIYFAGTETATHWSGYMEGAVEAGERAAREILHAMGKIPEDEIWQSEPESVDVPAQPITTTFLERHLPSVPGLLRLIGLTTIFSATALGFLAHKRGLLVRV
Description: Inhibition of recombinant human MAOB incubated for 15 mins measured after 30 mins by luminescence-Glo assay

Series [10] deals with CC(=O)c1ccc(CN2CCC3(CCNCC3)C2)cc1. The following applies: Homo sapiens.
Description: Inhibition of recombinant human KDM1A/CoREST complex expressed in Escherichia coli assessed as Km for substrate using H3K4me1 peptide as substrate preincubated for 15 mins followed by substrate addition measured for 12 mins by Lineweaver-Burk plot analysis
For series [11], the target named is T1, LSD1/CoREST complex. Put plainly: Competitive inhibition of recombinant human KDM1A/CoREST complex expressed in Escherichia coli using H3K4me1 peptide as substrate preincubated for 15 mins followed by substrate addition measured for 12 mins by Lineweaver-Burk plot analysis.
For series [12], the target named is T1, LSD1/CoREST complex. The source holds these as a separate data set.
Description: Inhibition of recombinant human KDM1A/CoREST complex expressed in Escherichia coli using H3K4me1 peptide as substrate preincubated for 15 mins with enzyme followed by substrate addition measured after 12 mins by Amplex Ultra Red reagent based HRP enzyme coupled assay

On to `Cn1ccc2c1cc(C(=O)Nc1ccccc1)n2C`, for which the half-inhibitory concentration (IC50) at LSD1/CoREST complex [1] was above 100 µM.
For `O=C(Nc1ccccc1)c1cc2sccc2n1-c1ccccc1`, the IC50 on LSD1/CoREST complex [1] is above 100 µM.
Still for that read-out and setting: in the case of `Cc1csc2cc(C(=O)Nc3ccccc3)n(C)c12` it was above 100 µM.
As to `Cc1oc(-c2ccc(Cl)cc2[N+](=O)[O-])cc1C(=O)Nc1ccccc1`, the half-inhibitory concentration (IC50) on LSD1/CoREST complex [2] is 3.5 µM.
Consider `Cn1c(C(=O)Nc2cccc(F)c2)cc2sccc21`, for which the midpoint of inhibition at LSD1/CoREST complex [1], the IC50, lay at 22.2 µM.
Still for that read-out and setting: with `Cn1c(C(=O)Nc2ccccc2)cc2scnc21` the figure was above 100 µM.
Still for that read-out and setting: with `O=C(Nc1ccccc1)c1cc2sccc2n1S(=O)(=O)c1ccccc1` the figure was above 100 µM; with `CCCn1c(C(=O)Nc2ccccc2)cc2sccc21`, 53.2 µM; with `Cn1c(C(=O)Nc2cccc(COc3ccncc3)c2)cc2sccc21`, 9.4 µM.
Still for that read-out and setting: with `O=C(Nc1ccccc1)c1cc2sccc2s1` the figure was above 100 µM; with `Cn1c(C(=O)Nc2ccccc2)c(Cl)c2sccc21`, above 100 µM.
At LSD1/CoREST complex [1], `Cc1cc2c(cc(C(=O)Nc3ccccc3)n2C)s1` displayed an IC50 above 100 µM.
As for `CN1CCC(Oc2ccc(OCc3cccc(NC(=O)c4cc5sccc5n4C)c3)cc2)CC1`, the values for the fold change (FC) in series [3] and in series [4] were 2.76 and 4.76, respectively. Also, the outcome in the series with THP-1 [5] and in the series with THP-1 [6] was inactive. The half-inhibitory concentration (IC50) against LSD1/CoREST complex [1] is 0.44 to 0.442 µM; in [7], above 100 µM; in [8], above 100 µM; in [9], 7.6 µM.
Compound `Cn1c(C(=O)Nc2cccc(COc3ccccc3)c2)cc2sccc21` showed an IC50 against LSD1/CoREST complex [1] above 100 µM.
On the same count and under the same terms, in the case of `O=C(Nc1ccccc1)c1cc2sccc2[nH]1` it was above 100 µM; in that of `Cn1c(C(=O)Nc2ccncn2)cc2sccc21`, above 100 µM; in that of `Cn1ncc2cc(C(=O)Nc3ccccc3)n(C)c21`, above 100 µM.
Still for that read-out and setting: with `Cn1c(C(=O)Nc2cccc(Cl)c2)cc2sccc21` the figure was 18.7 µM; with `CN1CCN(c2cccc(NC(=O)c3cc4sccc4n3C)c2)CC1`, 21.5 µM.
Same read-out and setting: with `Cn1c(C(=O)Nc2cccc(Oc3ccncc3)c2)cc2sccc21` the figure was 89.9 µM.
In the case of `Cn1c(C(=O)Nc2cccc(OCc3ccncc3)c2)cc2sccc21`, the IC50 at LSD1/CoREST complex [1] is 7.2 µM.
On the same count and under the same terms, with `Cn1c(C(=O)Nc2ccccc2)cc2sc(Br)cc21` the figure was above 100 µM; with `COCc1c(C(=O)Nc2ccccc2)n(C)c2ccsc12`, above 100 µM; with `CN(C)Cc1cccc(NC(=O)c2cc3sccc3n2C)c1`, 16.7 µM.
Regarding `CN(C)Cc1cc2c(cc(C(=O)Nc3ccccc3)n2C)s1`, the IC50 on LSD1/CoREST complex [1] was above 100 µM.
The same measure, in the same setting: in the case of `Cn1cnc2c1cc(C(=O)Nc1ccccc1)n2C` it was above 100 µM; in that of `Cc1sc2cc(C(=O)Nc3ccccc3)n(C)c2c1C`, above 100 µM.
Same read-out and setting: with `CN(C)c1cccc(NC(=O)c2cc3sccc3n2C)c1` the figure was 29.6 µM.
With “LSD1/CoREST complex (Homo sapiens) (from UniProt O60341+Q9UKL0)”, in series [10], the Km was determined as 1.4 µM.
As to `Cn1c(C(=O)Nc2cccc(CO)c2)cc2sccc21`, it took 52.3 µM to reach half-maximal inhibition against LSD1/CoREST complex [1] (IC50).
On the same count and under the same terms, with `Cn1c(C(=O)Nc2ncccn2)cc2sccc21` the figure was above 100 µM; with `CN(C)Cc1c(C(=O)Nc2ccccc2)n(C)c2ccsc12`, above 100 µM; with `CSCc1cccc(NC(=O)c2cc3sccc3n2C)c1`, 7.4 µM.
On the same count and under the same terms, with `Cn1c(C(=O)Nc2ccccc2)nc2sccc21` the figure was above 100 µM; with `Cn1c(C(=O)Nc2cccc(Br)c2)cc2sccc21`, above 100 µM.
The compound `Cn1c(C(=O)Nc2ccccc2)cc2ncsc21` came in with a 50% inhibitory concentration (IC50) on LSD1/CoREST complex [1] above 100 µM.
The same measure, in the same setting: with `CN1CCC(COc2cccc(NC(=O)c3cc4sccc4n3C)c2)CC1` the figure was 2.2 µM.
With `Cn1c(C(=O)Nc2ccccc2)cc2sc(F)cc21`, the 50% inhibitory concentration (IC50) on LSD1/CoREST complex [1] is above 100 µM.
Compound `Cn1c(C(=O)Nc2cccc(COc3ccc(O)cc3)c2)cc2sccc21` displayed a concentration for half-maximal inhibition (IC50) on LSD1/CoREST complex [1] of 25.2 µM.
On the same count and under the same terms, in the case of `Cn1cnc2[nH]c(C(=O)Nc3ccccc3)cc21` it was above 100 µM; in that of `Cn1c(C(=O)Nc2ccccc2)cc2occc21`, 89.5 µM; in that of `Cn1c(C(=O)Nc2ccccc2)cc2ccsc21`, 38.8 µM.
Regarding `Cn1c(C(=O)Nc2cccnc2)cc2sccc21`, the IC50 at LSD1/CoREST complex [1] was determined as 61.5 µM.
Still for that read-out and setting: in the case of `NCCn1c(C(=O)Nc2ccccc2)cc2sccc21` it was 48.1 µM; in that of `COc1cccc(NC(=O)c2cc3sccc3n2C)c1`, 26.5 µM.
The same measure, in the same setting: in the case of `O=C(Nc1ccccc1)c1ccc2sccc2c1` it was above 100 µM; in that of `Cn1c(C(=O)Nc2ccccc2)c(I)c2sccc21`, above 100 µM.
`Cn1c(C(=O)Nc2ccccc2)c(I)c2sc(I)cc21` yielded an IC50 at LSD1/CoREST complex [1] above 100 µM.
Turning to `Cc1nc(-n2nc(-c3cccs3)cc2NC(=O)COc2ccccc2F)[nH]c(=O)c1C`, the IC50 on LSD1/CoREST complex [2] was determined as 0.76 µM.
Consider `Cc1c(C(=O)Nc2ccccc2)n(C)c2ccsc12`, for which the IC50 on LSD1/CoREST complex [1] is above 100 µM.
On the same count and under the same terms, with `Cn1c(C(=O)Nc2cccc(C(N)=O)c2)cc2sccc21` the figure was 97.3 µM; with `CCn1c(C(=O)Nc2ccccc2)cc2sccc21`, 9.3 µM.
Take `CC(=O)c1ccc(CN2CCC3(CCNCC3)C2)cc1`: the IC50 at LSD1/CoREST complex [2] is 5 µM; against LSD1/CoREST complex [1], 8.1 µM; against LSD1/CoREST complex [12], 82.4 µM; in [8] it was above 100 µM; in series [9] it was 42.5 µM. Also, the Ki on LSD1/CoREST complex [11] was 48.4 µM.
For `Cn1c(C(=O)Nc2ccccn2)cc2sccc21`, the half-maximal inhibitory concentration (IC50) against LSD1/CoREST complex [1] is above 100 µM.
The same measure, in the same setting: with `Cn1c(C(=O)Nc2cccc(CN3CCOCC3)c2)cc2sccc21` the figure was 11.1 µM.
In the case of `COCc1cccc(NC(=O)c2cc3sccc3n2C)c1`, the half-maximal inhibitory concentration (IC50) in series [7] was above 100 µM; in [8] it was above 100 µM; in series [9], 56.8 µM.
On to `Cn1c(C(=O)Nc2ccncc2)cc2sccc21`, for which the IC50 on LSD1/CoREST complex [1] is above 100 µM.
On the same count and under the same terms, with `Cn1c(C(=O)Nc2ccccc2)cc2sc(I)cc21` the figure was above 100 µM; with `Cn1c(C(=O)Nc2ccccc2)cc2sccc21`, 25.7 µM.
